Results from US20150344540A1, “NOVEL GLP-1 RECEPTOR AGONISTS WITH CHOLESTEROL EFFLUX ACTIVITY” (NOVO NORDISK A/S, priority 2012, published 2015).
Like-named read-outs stand apart in the source and are kept apart here. Where a SMILES comes first, the peptide text is derived from it. [ ]: non-standard residue; d: D form. Aib = CC(C)(N)C(=O)O

Experiments:
[1] = tested on: Mouse monocyte/macrophage cell line, RAW 264.7; assay: Cholesterol efflux assay (3H-cholesterol, macrophage cell line); format: cell-based; conditions: RAW 264.7, 4 hrs incubation, 0.1% human serum albumin, ABCA1-mediated efflux
human GLP-1 receptor = human GLP-1 receptor (Homo sapiens, UniProt P43220); assay: Functional GLP-1 receptor assay, in vitro potency (CRE luciferase; whole cells); format: cell-based; conditions: BHK cells expressing human GLP-1 receptor
Chain of human GLP-1 receptor (P43220 24-463): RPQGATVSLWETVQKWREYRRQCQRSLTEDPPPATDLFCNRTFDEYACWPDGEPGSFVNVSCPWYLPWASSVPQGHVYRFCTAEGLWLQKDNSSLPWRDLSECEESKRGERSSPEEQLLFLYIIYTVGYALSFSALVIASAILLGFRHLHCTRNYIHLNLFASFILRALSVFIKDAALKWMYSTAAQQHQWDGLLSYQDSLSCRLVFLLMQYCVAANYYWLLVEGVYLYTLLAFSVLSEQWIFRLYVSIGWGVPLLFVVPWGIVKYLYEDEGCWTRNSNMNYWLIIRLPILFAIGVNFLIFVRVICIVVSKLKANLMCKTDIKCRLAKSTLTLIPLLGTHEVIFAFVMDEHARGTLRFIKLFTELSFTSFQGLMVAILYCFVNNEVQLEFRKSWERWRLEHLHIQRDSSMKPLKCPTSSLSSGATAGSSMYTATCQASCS

[2] = GLP1R CRE luc 1% HSA EC50 Mean Value, 1% HSA
[3] = 0% HSA, read-out: GLP1R CRE luc 0% HSA EC50 Mean Value

Structure (SMILES) | 4 h Cholesterol Efflux Emax [1] | EC50 (human GLP-1 receptor; [2]) | EC50 (human GLP-1 receptor; [3])
CC[C@H](C)[C@H](NC(=O)[C@H](Cc1ccccc1)NC(=O)[C@H](CCC(=O)O)NC(=O)[C@H](CCCCN)NC(=O)[C@@H](NC(=O)[C@H](C)NC(=O)[C@H](CCC(=O)O)NC(=O)CNC(=O)[C@H](CCC(=O)O)NC(=O)[C@H](CC(C)C)NC(=O)[C@H](Cc1ccc(O)cc1)NC(=O)[C@H](CO)NC(=O)[C@H](CO)NC(=O)[C@@H](NC(=O)[C@H](CC(=O)O)NC(=O)[C@H](CO)NC(=O)[C@@H](NC(=O)[C@H](Cc1ccccc1)NC(=O)[C@@H](NC(=O)CNC(=O)[C@H](CCC(=O)O)NC(=O)C(C)(C)NC(=O)[C@@H](N)Cc1c[nH]cn1)[C@@H](C)O)[C@@H](C)O)C(C)C)C(C)C)C(=O)N[C@@H](C)C(=O)N[C@@H](Cc1c[nH]cn1)C(=O)N[C@@H](CC(C)C)C(=O)N[C@H](C(=O)N[C@@H](CCC(=O)O)C(=O)N[C@@H](CCCCN)C(=O)NC(C)(C)C(=O)N[C@@H](CCCCN)C(=O)N[C@@H](CCC(=O)O)C(=O)N[C@@H](Cc1ccccc1)C(=O)N[C@@H](CC(C)C)C(N)=O)C(C)C [Compound 17, [Aib8,Glu23,Val25,His31,Glu34,Lys35,Aib36,Lys37]-GLP-1-(7-37)-peptidyl-Glu-Phe-Leu amide] (H-H[Aib]EGTFTSDVSSYLEGEAVKEFIAHLVEK[Aib]KEFL-NH2) | 102% | 0.02 nM | 
CC(C)C[C@H](NC(=O)[C@H](Cc1ccccc1)NC(=O)[C@H](CCC(=O)O)NC(=O)[C@H](CCCCN)NC(=O)C(C)(C)NC(=O)[C@H](CCCCN)NC(=O)[C@H](CCC(=O)O)NC(=O)[C@H](CC(C)C)NC(=O)[C@H](CC(C)C)NC(=O)[C@H](Cc1c[nH]c2ccccc12)NC(=O)[C@H](CCC(N)=O)NC(=O)[C@@H](NC(=O)[C@H](Cc1ccccc1)NC(=O)[C@H](CCC(=O)O)NC(=O)[C@H](CCCNC(=N)N)NC(=O)[C@H](C)NC(=O)[C@H](C)NC(=O)[C@H](CCCCN)NC(=O)CNC(=O)[C@H](CC(=O)O)NC(=O)[C@H](CC(C)C)NC(=O)[C@H](Cc1ccc(O)cc1)NC(=O)[C@H](CCCCN)NC(=O)[C@H](CO)NC(=O)[C@H](Cc1ccc(O)cc1)NC(=O)[C@H](CC(=O)O)NC(=O)[C@H](CO)NC(=O)[C@@H](NC(=O)[C@H](Cc1ccccc1)NC(=O)[C@@H](NC(=O)CNC(=O)[C@H](CCC(N)=O)NC(=O)C(C)(C)NC(=O)[C@@H](N)Cc1c[nH]cn1)[C@@H](C)O)[C@@H](C)O)C(C)C)C(N)=O [Compound 24] (H-H[Aib]QGTFTSDYSKYLDGKAAREFVQWLLEK[Aib]KEFL-NH2) | 82% | 0.908 nM | 1.63 nM
CC(C)C[C@H](NC(=O)[C@H](Cc1ccccc1)NC(=O)[C@H](CCC(=O)O)NC(=O)[C@H](CCCCN)NC(=O)C(C)(C)NC(=O)[C@H](CCCCN)NC(=O)[C@H](CCC(=O)O)NC(=O)[C@H](CC(C)C)NC(=O)[C@H](CC(C)C)NC(=O)[C@H](Cc1c[nH]c2ccccc12)NC(=O)[C@H](CCC(N)=O)NC(=O)[C@@H](NC(=O)[C@H](Cc1ccccc1)NC(=O)[C@H](CCC(=O)O)NC(=O)[C@H](CCCNC(=N)N)NC(=O)[C@H](C)NC(=O)[C@H](CCCNC(=N)N)NC(=O)[C@H](CCCCN)NC(=O)CNC(=O)[C@H](CC(=O)O)NC(=O)[C@H](CC(C)C)NC(=O)[C@H](Cc1ccc(O)cc1)NC(=O)[C@H](CCCCN)NC(=O)[C@H](CO)NC(=O)[C@H](Cc1ccc(O)cc1)NC(=O)[C@H](CC(=O)O)NC(=O)[C@H](CO)NC(=O)[C@@H](NC(=O)[C@H](Cc1ccccc1)NC(=O)[C@@H](NC(=O)CNC(=O)[C@H](CCC(N)=O)NC(=O)C(C)(C)NC(=O)[C@@H](N)Cc1c[nH]cn1)[C@@H](C)O)[C@@H](C)O)C(C)C)C(N)=O [Compound 25] (H-H[Aib]QGTFTSDYSKYLDGKRAREFVQWLLEK[Aib]KEFL-NH2) | 68% | 0.297 nM | 0.591 nM
CC[C@H](C)[C@H](NC(=O)[C@H](Cc1ccccc1)NC(=O)[C@H](CC(C)C)NC(=O)[C@H](CCCCN)NC(=O)[C@@H](NC(=O)[C@H](C)NC(=O)[C@H](CCC(=O)O)NC(=O)CNC(=O)[C@H](CCC(=O)O)NC(=O)[C@H](CC(C)C)NC(=O)[C@H](Cc1ccc(O)cc1)NC(=O)[C@H](CO)NC(=O)[C@H](CO)NC(=O)[C@@H](NC(=O)[C@H](CC(=O)O)NC(=O)[C@H](CO)NC(=O)[C@@H](NC(=O)[C@H](Cc1ccccc1)NC(=O)[C@@H](NC(=O)CNC(=O)[C@H](CCC(=O)O)NC(=O)C(C)(C)NC(=O)[C@@H](N)Cc1c[nH]cn1)[C@@H](C)O)[C@@H](C)O)C(C)C)C(C)C)C(=O)N[C@@H](C)C(=O)N[C@@H](Cc1c[nH]c2ccccc12)C(=O)N[C@@H](CC(C)C)C(=O)N[C@H](C(=O)N[C@@H](CCC(=O)O)C(=O)N[C@@H](CCCCN)C(=O)NC(C)(C)C(=O)N[C@@H](CCCCN)C(=O)N[C@@H](CCC(=O)O)C(=O)N[C@@H](Cc1ccccc1)C(=O)N[C@@H](CC(C)C)C(N)=O)C(C)C [Compound 28, [Aib8,Glu23,Val25,Leu27,Glu34,Lys35,Aib36,Lys37]-GLP-1-(7-37)-peptidyl-Glu-Phe-Leu amide] (H-H[Aib]EGTFTSDVSSYLEGEAVKLFIAWLVEK[Aib]KEFL-NH2) | 78% | 0.104 nM | 
CC[C@H](C)[C@H](NC(=O)[C@H](Cc1ccccc1)NC(=O)[C@H](CCC(=O)O)NC(=O)[C@H](CCCCN)NC(=O)[C@@H](NC(=O)[C@H](C)NC(=O)[C@H](CCC(=O)O)NC(=O)CNC(=O)[C@H](CCC(=O)O)NC(=O)[C@H](CC(C)C)NC(=O)[C@H](Cc1ccc(O)cc1)NC(=O)[C@H](CO)NC(=O)[C@H](CO)NC(=O)[C@@H](NC(=O)[C@H](CC(=O)O)NC(=O)[C@H](CO)NC(=O)[C@@H](NC(=O)[C@H](Cc1ccccc1)NC(=O)[C@@H](NC(=O)CNC(=O)[C@H](CCC(=O)O)NC(=O)C(C)(C)NC(=O)[C@@H](N)Cc1c[nH]cn1)[C@@H](C)O)[C@@H](C)O)C(C)C)C(C)C)C(=O)N[C@@H](C)C(=O)N[C@@H](Cc1c[nH]c2ccccc12)C(=O)N[C@@H](CC(C)C)C(=O)N[C@H](C(=O)N[C@@H](CCC(=O)O)C(=O)NCC(=O)NC(C)(C)C(=O)N[C@@H](CCCCN)C(=O)N[C@@H](CCC(=O)O)C(=O)N[C@@H](Cc1ccccc1)C(=O)N[C@@H](CC(C)C)C(N)=O)C(C)C [Compound 30, [Aib8,Glu23,Val25,Glu34,Aib36,Lys37]-GLP-1-(7-37)-peptidyl-Glu-Phe-Leu amide] (H-H[Aib]EGTFTSDVSSYLEGEAVKEFIAWLVEG[Aib]KEFL-NH2) | 75% | 0.013 nM | 0.034 nM
CC[C@H](C)[C@H](NC(=O)[C@H](Cc1ccccc1)NC(=O)[C@H](CCC(=O)O)NC(=O)[C@H](CCCCN)NC(=O)[C@@H](NC(=O)[C@H](C)NC(=O)[C@H](CCC(=O)O)NC(=O)CNC(=O)[C@H](CCC(=O)O)NC(=O)[C@H](CC(C)C)NC(=O)[C@H](Cc1ccc(O)cc1)NC(=O)[C@H](CO)NC(=O)[C@H](CO)NC(=O)[C@@H](NC(=O)[C@H](CC(=O)O)NC(=O)[C@H](CO)NC(=O)[C@@H](NC(=O)[C@H](Cc1ccccc1)NC(=O)[C@@H](NC(=O)CNC(=O)[C@H](CCC(=O)O)NC(=O)C(C)(C)NC(=O)[C@@H](N)Cc1c[nH]cn1)[C@@H](C)O)[C@@H](C)O)C(C)C)C(C)C)C(=O)N[C@@H](C)C(=O)N[C@@H](Cc1c[nH]c2ccccc12)C(=O)N[C@@H](CC(C)C)C(=O)N[C@H](C(=O)N[C@@H](CCC(=O)O)C(=O)N[C@@H](CCCCN)C(=O)NC(C)(C)C(=O)N[C@@H](CCCCN)C(=O)N[C@@H](Cc1c[nH]cn1)C(=O)N[C@@H](Cc1ccccc1)C(=O)N[C@@H](CC(C)C)C(N)=O)C(C)C [Compound 31, [Aib8,Glu23,Val25,Glu34,Lys35,Aib36,Lys37]-GLP-1-(7-37)-peptidyl-His-Phe-Leu amide] (H-H[Aib]EGTFTSDVSSYLEGEAVKEFIAWLVEK[Aib]KHFL-NH2) | 84% | 0.062 nM | 
CC[C@H](C)[C@H](NC(=O)[C@H](Cc1ccccc1)NC(=O)[C@H](CCC(=O)O)NC(=O)[C@H](CCCNC(=N)N)NC(=O)[C@@H](NC(=O)[C@H](C)NC(=O)[C@H](CCC(=O)O)NC(=O)[C@H](CCC(=O)O)NC(=O)[C@H](CCC(=O)O)NC(=O)[C@H](CCSC)NC(=O)[C@H](CCC(N)=O)NC(=O)[C@H](CCCCN)NC(=O)[C@H](CO)NC(=O)[C@H](CC(C)C)NC(=O)[C@H](CC(=O)O)NC(=O)[C@H](CO)NC(=O)[C@@H](NC(=O)[C@H](Cc1ccccc1)NC(=O)[C@@H](NC(=O)CNC(=O)[C@H](CCC(=O)O)NC(=O)C(C)(C)NC(=O)[C@@H](N)Cc1c[nH]cn1)[C@@H](C)O)[C@@H](C)O)C(C)C)C(=O)N[C@@H](CCC(=O)O)C(=O)N[C@@H](Cc1c[nH]c2ccccc12)C(=O)N[C@@H](CC(C)C)C(=O)N[C@@H](CCCCN)C(=O)N[C@@H](CC(N)=O)C(=O)NCC(=O)NC(C)(C)C(=O)N[C@@H](CC(C)C)C(=O)N[C@@H](CCC(=O)O)C(=O)N[C@@H](Cc1ccccc1)C(=O)N[C@@H](CC(C)C)C(=O)N[C@@H](CCC(=O)O)C(=O)N[C@@H](CC(C)C)C(=O)N[C@@H](CC(C)C)C(N)=O [Compound 34, [Aib2,Glu21,Aib30,Leu31,Glu32,Phe33,Leu34,Glu35,Leu36,Leu371-Exendin-4-(1-37)-peptide amide] (H-H[Aib]EGTFTSDLSKQMEEEAVREFIEWLKNG[Aib]LEFLELL-NH2; N-terminus assumed) | 94% | 0.032 nM | 
